# In US20210317092A1 (BAYER PHARMA AKTIENGESELLSCHAFT, priority 2016, published 2021):
# pIC50: −log10 of the molar value. Like-named read-outs stand apart in the source and are kept apart here.
# Legend:
# [1] = biological target: T1, native human Bradykinin B1 receptor (Homo sapiens, UniProt P46663); assay: Calcium flux Assay (FLIPR) with human fibroblasts expressing Bradykinin B1 receptor (hB1 IMR-90); assay type: cell-based; conditions: IMR-90 human fibroblasts expressing native Bradykinin B1 receptor
# T1 construct: which express native human Bradykinin B1 receptor after induction with human IL-10; Coriell Institute; host or cells: IMR-90 human foetal lung fibroblasts, cytokine-induced
# T1 sequence (P46663 1-353): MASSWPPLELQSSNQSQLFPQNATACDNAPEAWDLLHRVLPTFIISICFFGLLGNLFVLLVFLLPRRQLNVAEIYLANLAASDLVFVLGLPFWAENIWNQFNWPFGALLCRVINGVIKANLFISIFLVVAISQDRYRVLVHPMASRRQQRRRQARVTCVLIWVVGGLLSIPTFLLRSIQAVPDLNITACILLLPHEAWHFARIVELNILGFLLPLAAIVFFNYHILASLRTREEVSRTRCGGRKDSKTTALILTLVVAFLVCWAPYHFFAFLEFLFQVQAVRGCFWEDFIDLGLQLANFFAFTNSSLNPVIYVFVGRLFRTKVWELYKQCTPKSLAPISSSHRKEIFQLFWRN
# Experimental: Calcium flux Assay (FLIPR) with human fibroblasts expressing Bradykinin B1 receptor (hB1 IMR-90)
# The Calcium flux Assay was carried out utilising IMR-90 human foetal lung fibroblasts (American Type Culture Collection, Rockville, Md.; and Coriell Institute, Camden, N.J.), which express native human Bradykinin B1 receptor after induction with human […].
# The fibroblasts were cultured in complete growth media comprised of Dulbecco's modified Eagle's medium (DMEM; Sigma) containing 10% foetal bovine serum, 4 mM L-glutamine, and 1% nonessential amino acids. The cells were maintained in a humidified atmosphere with 5% CO2 at 37° C. and were sub-cultured at a ratio of 1:3, every other day.
# For the assay, IMR-90 fibroblasts were harvested using TrypLE Express (GIBCO/Invitrogen) and seeded into 384-well plates (Corning Cellbinding Surface, Cat. 3683) at a density of 15000 cells/well. The following day, cells were treated with 0.35 ng/mL human […] in 10% FBS/MEM for 3h to up-regulate Bradykinin B1 receptor. Induced cells were loaded with fluorescent calcium indicator by incubation with 2.5 μM Fluo-4/AM (Invitrogen) at 37° C., 5% CO2 for 2 h in the presence of 2.5 mM probenecid in 1% FBS/MEM. Extracellular dye was removed by washing with assay buffer (2.5 mM probenecid and 0.1% BSA in 20 mM HEPES/HBSS without bicarbonate or phenol red, pH 7.5). Compound examples were assayed at 8 concentrations in triplicate. After addition of compound examples to the cell plate and incubation for 30 min at 28° C., the addition of Bradykinin B1 agonist Lys-(Des-Arg)-Bradykinin (Bachem, Brackley) at a final concentration of EC90 was carried out on the FLIPR instrument while continuously monitoring Ca^2+-dependent fluorescence at 538 nm. A peptide antagonist Lys-(Des-Arg-Leu)-Bradykinin (Bachem, Brackley) at 20 µM was used to determine the full inhibition as control. IC50 values were determined by the same way described for the FLIPR assay with recombinant cells.
# [2] = biological target: T2, human Bradykinin B1 receptor (Homo sapiens, UniProt P46663); assay: Calcium flux Assay (FLIPR) with recombinant CHO-K1 cells expressing human Bradykinin B1 receptor, in presence (hB1 IC50) or absence (hB1 free IC50) of 0.1% BSA; assay type: cell-based
# T2 construct: host or cells: CHO-K1
# T2 sequence (P46663 1-353): T1 sequence (P46663 1-353)
# [3] = in absence of 0.1% BSA, read-out: hB1 free IC50
# [4] = in presence of 0.1% BSA, read-out: hB1 IC50
Compound,pIC50 [1],"pIC50 [2, 3]","pIC50 [2, 4]"
"COc1ccc(-c2ccc(NC(=O)C3(c4ccc(C)c(F)c4)CC3)cc2-c2nnn[nH]2)cc1OC [Example 12, N-[3′,4′-dimethoxy-2-(1H-tetrazol-5-yl)biphenyl-4-yl]-1-(3-fluoro-4-methylpheny) cyclopropane-carboxamide]",7.41,7.25,7.74
"COc1ccc(-c2ccc(NC(=O)C3(c4ccc(Cl)c(F)c4)CC3)cc2-c2nnn[nH]2)cc1OC [Example 16, 1-(4-chloro-3-fluorophenyl)-N-[3′,4′-dimethoxy-2-(1H-tetrazol-5-yl)biphenyl-4-yl]cyclopropane carboxamide]",6.28,,7.50
"COc1ccc(-c2ccc(NC(=O)C3(c4cc(Cl)ccc4F)CC3)cc2-c2nnn[nH]2)cc1OC [Example 17, 1-(5-chloro-2-fluorophenyl)-N-[3′,4′-dimethoxy-2-(1H-tetrazol-5-yl)biphenyl-4-yl]cyclopropane carboxamide]",6.58,,7.16
"COc1ccc(-c2ccc(NC(=O)C3(c4ccc(Cl)cc4F)CC3)cc2-c2nnn[nH]2)cc1OC [Example 18, 1-(4-chloro-2-fluorophenyl)-N-[3′,4′-dimethoxy-2-(1H-tetrazol-5-yl)biphenyl-4-yl]cyclopropane carboxamide]",7.56,,7.40
"COc1ccc(-c2ccc(NC(=O)C3(c4ccc(Cl)cn4)CC3)cc2-c2nnn[nH]2)cc1OC [Example 23, 1-(5-chloropyridin-2-yl)-N-[3′,4′-dimethoxy-2-(1H-tetrazol-5-yl)biphenyl-4-yl]cyclopropane carboxamide]",7.45,6.84,6.75
"COc1ccc(-c2ccc(NC(=O)C3(c4ccccc4Cl)CC3)cc2-c2nnn[nH]2)cc1OC [Example 36, 1-(2-chlorophenyl)-N-[3′,4′-dimethoxy-2-(1H-tetrazol-5-yl)biphenyl-4-yl]cyclopropane carboxamide]",6.98,,6.89
"COc1ccc(-c2ccc(NC(=O)C3(c4ccc(C(F)(F)F)cc4)CC3)cc2-c2nnn[nH]2)cc1OC [Example 44, N-[3′,4′-dimethoxy-2-(1H-tetrazol-5-yl)biphenyl-4-yl]-1-[4-(trifluoromethyl)phenyl] cyclopropane-carboxamide]",8.26,8.24,7.64
"CC(C)(C)c1cn(-c2ccc(NC(=O)C3(c4cccc(Cl)c4)CC3)cc2-c2nnn[nH]2)cn1 [Example 400, N-[4-(4-tert-butyl-1H-imidazol-1-yl)-3-(1H-tetrazol-5-yl)phenyl]-1-(3-chlorophenyl)cy-clopropanecarbox-amide]",,7.60,
"CCC1CCN(c2ccc(NC(=O)C3(c4cccc(Cl)c4)CC3)cc2-c2nnn[nH]2)C1=O (stereo not shown) [Example 405, 1-(3-chlorophenyl)-N-[4-(3-ethyl-2-oxopyrrolidin-1-yl)-3-(1H-tetrazol-5-yl)phenyl]cyclopro-panecarboxa-mide]",,5.86,
"CCC1CCN(c2ccc(NC(=O)C3(c4ccc(F)c(F)c4)CC3)cc2-c2nnn[nH]2)C1=O (stereo not shown) [Example 406, 1-(3,4-difluorophenyl)-N-[4-(3-ethyl-2-oxopyrrolidin-1-yl)-3-(1H-tetrazol-5-yl)phenyl]cyclopro-panecarboxa-mide]",,5.67,
"CCC1CCN(c2ccc(NC(=O)C3(c4ccc(C(F)(F)F)cc4F)CC3)cc2-c2nnn[nH]2)C1=O (stereo not shown) [Example 408, N-[4-(3-ethyl-2-oxopyrrolidin-1-yl)-3-(1H-tetrazol-5-yl)phenyl]-1-[2-fluoro-4-(trifluoromethyl)phenyl]cyclopro-panecarboxamide]",,6.88,
"CCC1CCN(c2ccc(NC(=O)C3(c4ccc(OC(F)(F)F)cc4F)CC3)cc2-c2nnn[nH]2)C1=O (stereo not shown) [Example 409, N-[4-(3-ethyl-2-oxopyrrolidin-1-yl)-3-(1H-tetrazol-5-yl)phenyl]-1-[2-fluoro-4-(trifluoromethoxy)phenyl]cyclo-propanecarboxa-mide]",,7.26,

# Next, values leading:
pIC50 [1],"pIC50 [2, 3]","pIC50 [2, 4]",Compound
,7.79,,"O=C(Nc1ccc(-n2cc(Cl)cn2)c(-c2nnn[nH]2)c1)C1(c2ccc(OC(F)(F)F)cc2F)CC1 [Example 395, N-[4-(4-chloro-1H-pyrazol-1-yl)-3-(1H-tetrazol-5-yl)phenyl]-1-[2-fluoro-4-(trifluoromethoxy)phenyl]cyclo-propanecarboxa-mide]"
,7.51,,"CC(C)c1cnn(-c2ccc(NC(=O)C3(c4cccc(Cl)c4)CC3)cc2-c2nnn[nH]2)c1 [Example 396, 1-(3-chlorophenyl)-N-[4-(4-isopropyl-1H-pyrazol-1-yl)-3-(1H-tetrazol-5-yl)phenyl]cyclopro-panecarboxa-mide]"
,7.41,,"CC(C)c1cnn(-c2ccc(NC(=O)C3(c4ccc(F)c(F)c4)CC3)cc2-c2nnn[nH]2)c1 [Example 397, 1-(3,4-difluorophenyl)-N-[4-(4-isopropyl-1H-pyrazol-1-yl)-3-(1H-tetrazol-5-yl)phenyl]cyclopro-panecarboxa-mide]"
,7.69,,"Cc1ccc(C2(C(=O)Nc3ccc(-n4cc(C(C)C)cn4)c(-c4nnn[nH]4)c3)CC2)c(F)c1 [Example 398, 1-(2-fluoro-4-methylphenyl)-N-[4-(4-isopropyl-1H-pyrazol-1-yl)-3-(1H-tetrazol-5-yl)phenyl]cyclopro-panecarboxa-mide]"
,7.46,,"CC(C)(C)c1cn(-c2ccc(NC(=O)C3(c4ccc(F)c(F)c4)CC3)cc2-c2nnn[nH]2)cn1 [Example 401, N-[4-(4-tert-butyl-1H-imidazol-1-yl)-3-(1H-tetrazol-5-yl)phenyl]-1-(3,4-difluorophenyl)cy-clopropanecar-boxamide]"
,7.60,,"Cc1ccc(C2(C(=O)Nc3ccc(-n4cnc(C(C)(C)C)c4)c(-c4nnn[nH]4)c3)CC2)c(F)c1 [Example 402, N-[4-(4-tert-butyl-1H-imidazol-1-yl)-3-(1H-tetrazol-5-yl)phenyl]-1-(2-fluoro-4-methylphenyl)cy-clopropanecar-boxamide]"
,7.69,,"CC(C)(C)c1cn(-c2ccc(NC(=O)C3(c4ccc(C(F)(F)F)cc4F)CC3)cc2-c2nnn[nH]2)cn1 [Example 403, N-[4-(4-tert-butyl-1H-imidazol-1-yl)-3-(1H-tetrazol-5-yl)phenyl]-1-[2-fluoro-4-(trifluoromethyl)phenyl]cyclopro-panecarboxamide]"
,6.32,,"CCC1CCN(c2ccc(NC(=O)C3(c4ccc(C)cc4F)CC3)cc2-c2nnn[nH]2)C1=O (stereo not shown) [Example 407, N-[4-(3-ethyl-2-oxopyrrolidin-1-yl)-3-(1H-tetrazol-5-yl)phenyl]-1-(2-fluoro-4-methylphenyl)cy-clopropanecar-boxamide]"
,8.22,,"CC(C)(C)c1cnn(-c2ccc(NC(=O)C3(c4ccc(C(F)(F)F)cc4F)CC3)cc2-c2nnn[nH]2)c1 [Example 410, 1-[2-fluoro-4-(trifluoromethyl)phenyl]-N-[4-(4-tert-butyl-1H-pyrazol-1-yl)-3-(1H-tetrazol-5-yl)phenyl]cyclopro-panecarboxa-mide]"
,8.16,,"CC(C)(C)c1cnn(-c2ccc(NC(=O)C3(c4ccc(OC(F)(F)F)cc4F)CC3)cc2-c2nnn[nH]2)c1 [Example 411, 1-[2-fluoro-4-(trifluoromethoxy)phenyl]-N-[4-(4-tert-butyl-1H-pyrazol-1-yl)-3-(1H-tetrazol-5-yl)phenyl]cyclopro-pranecarboxa-mide]"
,6.30,,"O=C(Nc1ccc(-n2cnc(C(F)(F)F)n2)c(-c2nnn[nH]2)c1)C1(c2ccc(C(F)(F)F)cc2F)CC1 [Example 412, 1-[2-fluoro-4-(trifluoromethyl)phenyl]-N-{3-(1H-tetrazol-5-yl)-4-[3-(trifluoromethyl)-1H-1,2,4-triazol-1-yl]phenyl}cyclopro-panecarboxa-mide]"
,8.23,,"CC(C)c1cnn(-c2ccc(NC(=O)C3(c4ccc(OC(F)(F)F)cc4F)CC3)cc2-c2nnn[nH]2)c1 [Example 413, 1-[2-fluoro-4-(trifluoromethoxy)phenyl]-N-[4-(4-isopropyl-1H-pyrazol-1-yl)-3-(1H-tetrazol-5-yl)phenyl]cyclopro-panecarboxa-mide]"
